Data: patent EP0629585A1, “Process of inhibition oxalate scale formation” (MONSANTO EUROPE S.A., priority 1993, dated 1994)
Structures can show the parent of a compound that is named as a salt.

Experiment: Calcium oxalate scale inhibition test under conditions similar to an alkaline pulp bleaching process
Settings: dosage 25 ppm active acid, 45°C, pH 9.5, 100 ppm calcium, 80 ppm oxalates
Protocol: The preferred oxalate scale inhibiting compound of the invention, i.e. the compound of formula I above, was tested alongside various members of the known "DEQUEST" family of phosphonate inhibitors under conditions similar to those encountered in an alkaline pulp bleaching process. The word "DEQUEST" is a Registered Trade Mark.
The temperature of the aqueous solution used in the tests was maintained at 45°C and the pH at 9.5 (adjusted using an ammonium hydroxide/ammonium chloride buffering agent). Tests times of 2.5, 8 and 24 hours were deployed, and concentrations of 100 ppm of calcium and 80 ppm of oxalates were present in the aqueous solution. A dosage rate of inhibitor of 25 ppm was used in each test. The "DEQUEST" scale inhibitors used in the tests were designated A to E and were as follows: • A - DEQUEST 2066 (diethylenetriaminepenta(methylenephosphonic acid) or its salts) • B - DEQUEST 2046 (ethylenediaminetetra(methylenephosphonic acid) or its salts) • C - DEQUEST 2000 (aminotri(methylenephosphonic acid) or its salts) • D - DEQUEST 2010 (1-hydroxyethylene(1,1 diphosphonic acid)) • E - DEQUEST 2056 (hexamethylenediaminetetra(methylenephosphonic acid) or its salts). TABLE
The results above express the scale-inhibiting effects of the various inhibitors in terms of percentage inhibition.

Q: Which “Percentage Inhibition” value (time 2.5 hrs) does the source give for `O=P(O)(O)CN(CP(=O)(O)O)CP(=O)(O)O` [C, aminotri(methylenephosphonic acid) or its salts] here?
A: 51

Q: With `O=P(O)(O)CN(CCCN(CP(=O)(O)O)CP(=O)(O)O)CCN(CCCN(CP(=O)(O)O)CP(=O)(O)O)CP(=O)(O)O` [(I)] as the compound, how does the “Percentage Inhibition” value (time 2.5 hrs) read?
A: 100

Q: And the “Percentage Inhibition” value (time 8 hrs)?
A: 92

Q: What about the “Percentage Inhibition” value (time 24 hrs) of the same compound?
A: 49

Q: Which “Percentage Inhibition” value (time 2.5 hrs) does the source give for “diethylenetriaminepenta(methylenephosphonic acid) or its salts” here?
A: 64

Q: And the “Percentage Inhibition” value (time 8 hrs)?
A: 38

Q: What about the “Percentage Inhibition” value (time 24 hrs) of the same compound?
A: 24

Q: For “hexamethylenediaminetetra(methylenephosphonic acid) or its salts”, which “Percentage Inhibition” value (time 2.5 hrs) is on record?
A: 34

Q: Which “Percentage Inhibition” value (time 2.5 hrs) does the source give for “ethylenediaminetetra(methylenephosphonic acid) or its salts [B]” here?
A: 50

Q: What about the “Percentage Inhibition” value (time 8 hrs) of the same compound?
A: 23

Q: And the “Percentage Inhibition” value (time 24 hrs)?
A: 14

Q: Which “Percentage Inhibition” value (time 2.5 hrs) does the source give for `CC(O)(P(=O)(O)O)P(=O)(O)O` [D, 1-hydroxyethylene(1,1 diphosphonic acid)] here?
A: 49
